We go through five compounds from patent US20250074920A1, “MACROCYCLIC COMPOUNDS AND USE AS KINASE INHIBITORS” (BLOSSOMHILL THERAPEUTICS, INC., priority 2022, published 2025).

Usually Kd stands for the equilibrium constant for the complex coming apart.

Holding throughout (assay): KINOMEscan kinase binding assay
The test system of one test is ABL1-nonphosphorylated. Particulars: at 1 μM. In outline: (§1)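 We measured how much kinase stayed bound to an immobilized small-molecule ligand when test compound was present. Binding ran at room temperature for 1 h, and the kinase eluted from the beads was counted by qPCR. Lower % Ctrl indicated tighter compound binding.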
A further test has as its system DDR2. Particulars: at 1 μM. In outline: as §1
The test system of another test is EGFR(L861Q). To be noted: at 1 μM. In outline:
(§2)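 Steps: biotinylated ligand loaded onto streptavidin beads (30 min RT), then biotin-blocked; kinase, beads and compound combined in SeaBlock/PBS/Tween/DTT buffer for 1 h RT; beads washed; kinase eluted with 0.5 μM non-biotinylated ligand; eluate quantified by qPCR.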

In another test the test system is EPHA5. Particulars: at 1 μM. The procedure, abridged: as §2
The test system of the next test is FLT1. To be noted: at 1 μM. The procedure, abridged:
as §1

The next test has as its system FLT3(D835Y). To be noted: at 1 μM. The procedure, abridged: as §1
Test [1] has as its system JAK1(JH2domain-pseudokinase). To be noted: for % Ctrl: JAK1(JH2domain-pseudokinase), at 1 μM; for Kd: read-out: JAK1(JH2 domain-pseudokinase) Kd. In outline:
as §1

The next test deals with KIT(L576P). To be noted: at 1 μM. The procedure, abridged: as §1
The subject of the next test is MERTK. Particulars: at 1 μM. In outline: as §1
For another test, the system named is ROS1. Particulars: at 1 μM. The procedure, abridged: as §1
The subject of the next test is TYRO3. Particulars: at 1 μM. The procedure, abridged: as §1

As for `Cc1cc2c([nH]1)/C=C1\C(=O)Nc3c(Cl)cc(cc31)-c1cn(C)nc1COC[C@@H](C)N(C)C2=O` [Cpd. 5, [3a(4)Z,10R]-20-chloro-6,9,10,15-tetramethyl-10,11,13,15-tetrahydro-2H-1,17-(ethanediylidene)pyrazolo[4,3-m]dipyrrolo[3,2-f:3′,4′-i][1,4]oxazacyclopentadecine-3,8(5H,9H)-dione], the “% Ctrl” value in the test with ABL1-nonphosphorylated is given as 87%; in the test with DDR2, 76%; with EGFR(L861Q) it was 94%; in the test on EPHA5, 97%; with FLT1 it was 93%; in the test on FLT3(D835Y) it was 100%. Moreover, the “% Ctrl” value in test [1] is 0.85%; in the test on KIT(L576P), 97%; in the test on MERTK, 86%; in the test on ROS1, 69%; with TYRO3, 84%. Moreover, the Kd in [1] turned out to be 0.05 µM.

With `Cc1cc2c([nH]1)/C=C1\C(=O)Nc3ccc(cc31)-c1c(nn(C)c1C)COCCN(C)C2=O` [Cpd. 2, [3a(4)Z]-6,9,15,16-tetramethyl-10,11,13,15-tetrahydro-2H-1,17-(ethanediylidene)pyrazolo[4,3-m]dipyrrolo[3,2-f:3′,4′-i][1,4]oxazacyclopentadecine-3,8(5H,9H)-dione], the “% Ctrl” value in the test on ABL1-nonphosphorylated worked out at 55%; in the test on DDR2, 100%; in the test with EGFR(L861Q), 62%; in the test with EPHA5, 99%; in the test with FLT1, 79%; with FLT3(D835Y) it was 36%. Further, the “% Ctrl” value is recorded as 30% in test [1]; 100% in the test with KIT(L576P); 100% with MERTK; 97% with ROS1; 100% in the test with TYRO3.

As for `Cc1cc2c([nH]1)/C=C1\C(=O)Nc3ccc(cc31)-c1c(nn(C)c1C)OCCCN(C)C2=O` [Cpd. 1, [3a(4)Z]-6,9,15,16-tetramethyl-9,10,11,12-tetrahydro-15H-1,17-(ethanediylidene)pyrazolo[4,3-n]dipyrrolo[3,2-g:3′,4′-j][1,5]oxazacyclopentadecine-3,8(2H,5H)-dione], the “% Ctrl” value in the test on ABL1-nonphosphorylated turned out to be 87%; in the test on DDR2, 95%; in the test with EGFR(L861Q), 82%; with EPHA5, 93%; in the test with FLT1 it was 97%; in the test on FLT3(D835Y), 97%. Further, the “% Ctrl” value is 100% in [1]; 88% in the test on KIT(L576P); 78% in the test on MERTK; 91% in the test on ROS1; 100% in the test on TYRO3.

For the compound `Cc1cc2c([nH]1)/C=C1\C(=O)Nc3c(Cl)cc(cc31)-c1cn(C)nc1COC[C@@H](C)NC2=O` [Cpd. 3, [3a(4)Z,10R]-20-chloro-6,10,15-trimethyl-10,11,13,15-tetrahydro-2H-1,17-(ethanediylidene)pyrazolo[4,3-m]dipyrrolo[3,2-f:3′,4′-i][1,4]oxazacyclopentadecine-3,8(5H,9H)-dione], the “% Ctrl” value in the test with ABL1-nonphosphorylated stood at 92%; in the test on DDR2, 100%; in the test with EGFR(L861Q) it was 98%; in the test with EPHA5, 100%; in the test on FLT1, 92%; in the test on FLT3(D835Y) it was 81%. In addition, the “% Ctrl” value in test [1] is recorded as 3.1%; in the test with KIT(L576P) it was 100%; with MERTK, 98%; with ROS1, 62%; with TYRO3, 94%. Besides, the Kd in test [1] came out at 0.12 µM.

Turning to `C[C@@H]1COCc2nn(C)cc2-c2cc(Cl)c3c(c2)/C(=C/c2[nH]ccc2C(=O)N1)C(=O)N3` [Cpd. 4, [3a(4)Z,10R]-20-chloro-10,15-dimethyl-10,11,13,15-tetrahydro-2H-1,17-(ethanediylidene)pyrazolo[4,3-m]dipyrrolo[3,2-f:3′,4′-i][1,4]oxazacyclopentadecine-3,8(5H,9H)-dione], the “% Ctrl” value in the test with ABL1-nonphosphorylated is reported as 84%; in the test on DDR2, 79%; with EGFR(L861Q), 89%; with EPHA5 it was 100%; in the test with FLT1, 92%; in the test with FLT3(D835Y) it was 96%. Also, the “% Ctrl” value in test [1] was found to be 0.25%; with KIT(L576P), 100%; with MERTK it was 48%; with ROS1, 68%; in the test on TYRO3, 97%. In test [1], the dissociation constant (Kd) was determined as 0.029 µM.
